This test deals with Human immunodeficiency virus 1. The experiment in a line: Inhibition of HIV-1 replication in human peripheral blood mononuclear cells. The class given is functional, organism-based.

In general, EC50 refers to the concentration at which the effect is half-maximal. `[N-]=[N+]=N[C@H]1C[C@H](n2cc(C(F)(F)F)c(=O)[nH]c2=O)O[C@@H]1CO`: the EC50 was > 100 µM.

As for `[N-]=[N+]=N[C@H]1C[C@H](n2cc(Br)c(=O)[nH]c2=O)O[C@@H]1CO`, it took 1 µM to reach a half-maximal effect (EC50).

In turn, `Cc1cn([C@H]2C[C@H](N=[N+]=[N-])[C@@H](CO)O2)c(=O)nc1N` displayed a half-maximal effective concentration (EC50) of 5.1 µM.

As for `[N-]=[N+]=N[C@H]1C[C@H](n2cc(F)c(N)nc2=O)O[C@@H]1CO`, the EC50 is 1 µM.

The compound `[N-]=[N+]=N[C@H]1C[C@H](n2ccc(N)nc2=O)O[C@@H]1CO` came in with an EC50 of 1.2 µM.

Take `[N-]=[N+]=N[C@H]1C[C@H](n2cc(F)c(=O)[nH]c2=O)O[C@@H]1CO`: the EC50 turned out to be 4.8 µM.

In turn, `[N-]=[N+]=N[C@@H]1CC(n2cc(I)c(=O)[nH]c2=O)O[C@@H]1CO` (some centres not stated) gave an EC50 of 1.1 µM.

On to `COc1cn([C@H]2C[C@H](N=[N+]=[N-])[C@@H](CO)O2)c(=O)[nH]c1=O`, for which the EC50 was determined as 70 µM.

`CSc1cn([C@H]2C[C@H](N=[N+]=[N-])[C@@H](CO)O2)c(=O)[nH]c1=O`: the EC50 is > 100 µM.

Regarding `[N-]=[N+]=N[C@H]1C[C@H](n2cc(O)c(=O)[nH]c2=O)O[C@@H]1CO`, the EC50 is ~10 µM.

As to `Cc1nn([C@H]2C[C@H](N=[N+]=[N-])[C@@H](CO)O2)c(=O)[nH]c1=O`, the EC50 was > 100 µM.

Compound `Cc1cn([C@H]2C[C@H](N=[N+]=[N-])[C@@H](CO)O2)c(=O)n(/C=C/C=O)c1=O` displayed an EC50 of 0.01 µM.

With `N#CSc1cn([C@H]2C[C@H](N=[N+]=[N-])[C@@H](CO)O2)c(=O)[nH]c1=O`, the EC50 stood at 5.1 µM.

Regarding `N#CCOc1cn([C@H]2C[C@H](N=[N+]=[N-])[C@@H](CO)O2)c(=O)[nH]c1=O`, the EC50 was determined as 16 µM.

For the compound `C=CCOc1cn([C@H]2C[C@H](N=[N+]=[N-])[C@@H](CO)O2)c(=O)[nH]c1=O`, the EC50 was > 100 µM.

The compound `C#CCOc1cn([C@H]2C[C@H](N=[N+]=[N-])[C@@H](CO)O2)c(=O)[nH]c1=O` came in with an EC50 of 38 µM.

Compound `CCOc1cn([C@H]2C[C@H](N=[N+]=[N-])[C@@H](CO)O2)c(=O)[nH]c1=O` returned an EC50 of 54 µM.

`[N-]=[N+]=N[C@H]1C[C@H](n2cc(N)c(=O)[nH]c2=O)O[C@@H]1CO` returned an EC50 of 6.2 µM.

With `CNc1cn([C@H]2C[C@H](N=[N+]=[N-])[C@@H](CO)O2)c(=O)[nH]c1=O`, the EC50 is > 100 µM.

As for `CN(C)c1cn([C@H]2C[C@H](N=[N+]=[N-])[C@@H](CO)O2)c(=O)[nH]c1=O`, the EC50 is > 100 µM.

The compound `[N-]=[N+]=N[C@H]1C[C@H](n2ccc(=O)[nH]c2=O)O[C@@H]1CO` [NAVURIDINE] yielded an EC50 of 0.2 µM.

`Cc1cn([C@H]2C[C@H](N=[N+]=[N-])[C@@H](CO)O2)c(=O)[nH]c1=O` [ZIDOVUDINE]: the EC50 was found to be 0.002 µM.

Values taken from ChEMBL document CHEMBL1124028, “Synthesis and antiviral activity of various 3'-azido analogues of pyrimidine deoxyribonucleosides against human immunodeficiency virus (HIV-1, HTLV-III/LAV)” (J Med Chem, 1988).
